Data taken from patent publication US4895589A, “Heterocyclic compounds” (Imperial Chemical Industries PLC, priority 1985, dated 1990).
Like-named read-outs stand apart in the source and are kept apart here.

Assays:
Spring Barley = assay: Intermediate Retardant Test, spring barley; format: in vivo, Spring Barley (Atem/kym); settings: Hordeum vulgare, 672 h, ~28 days, read-out: Percentage Reduction in Height of Spring Barley (Compared to formulation blank)
Experimental: (§1) Three species are involved in this test RICE, SPRING-BARLEY and APPLES. The variety and growth stages at spray are outlined in Table VI. Compounds were applied at 1000 ppm and 4000 ppm respectively (1 kg and 4 kg ha^-1 at a field volume of 1000 l/ha^-1) as an overall spray. This gives a foliar and root component in the test, i.e. this test will detect the activity of both root and foliar acting compounds. The rice was grown in 4" `paddy` pots, i.e. the roots and bottom of the stems are immersed in water under conditions corresponding to those in paddy fields. Spring barley and apples were grown in 4" pots. The plants were assessed for height to top-most ligule at approximately 28 days after treatment for spring barley and rice and for height to apex at approximately 28 days after the treatment for apples. In each case the result for the 1000 ppm and 4000 ppm test for each compound is compared to the height of the formulation blank in that test, presented as a percentage reduction in height compared to the formulation blank.
as §1, with “in Table XIV. Compounds were” for “in Table VI. Compounds were”, “that test, and presented as” for “that test, presented as”

Rice [1] = assay: Intermediate Retardant Test, rice; format: in vivo, Rice (Ishikari); settings: Oryza sativa, 672 h, ~28 days, read-out: Percentage Reduction in Height of Rice (Compared to formulation blank)
Experimental: as §1
as §1, with “in Table XIV. Compounds were” for “in Table VI. Compounds were”, “that test, and presented as” for “that test, presented as”

[2] = system: plant species of Whole Plant Screen (1) or (2); assay: Across screen comparison: total retardation relative to paclobutrazol (Whole Plant Screens (1) and (2)); format: in vivo; settings: for Total Retardation expressed as a percentage of the total retardation caused by paclobutrazol: compounds of Table I, Table X
Excerpt: The following Example is a general indicative comparison of compounds from EP No. 0052424 with compounds from the preferred class in the present invention. The compounds have not been side-by-side tested on this Example because of the large numbers involved but the retardant activity can be compared using a standard which has been on each test.
The compounds which are compared in this Example have been tested on one of two tests. These are the Whole Plant Screen (1) and Whole Plant Screen (2) the methods for which are described in Examples 17 and 18 respectively.
An across screen comparison between compounds is made by expressing the total retardation (ie. sum of retardation scores recorded for each species tested) caused by the compound as a percentage of the total retardation caused by the standard in that test. The standard chemical gives a measure of the performance of the test and environmental factors. By expressing the test compound activity as a percentage of the standard compound activity these factors can be eliminated . The same standard has been used in every test and this is paclobutrazol a proprietory growth regulator.

Rice [3] = assay: Whole Plant Screen (2), rice; format: in vivo, Rice (Ishikari); settings: RC, 4000 ppm
Experimental: (§2) After 2-6 weeks in the glasshouse, depending on the time of year, the plants were visually assessed for morphological characteristics. Formulation blanks were used as controls to assess the plants.
(§3) Compound numbers 1, 5 and 7 (of the present invention) were tested against compounds A, B, C and D (compound Nos. 12, 2, 24 and 50 of Table 1 EP No. 0052424) on whole plant screen (2). The compounds were tested of plant growth regulator activity against five species and for various growth effects relevant to plant growth regulation. The structures are set out in FIG. 1.
(§4) The plant species used in this screen are presented in Table XII with the leaf stage at which they were sprayed Each chemical was applied at 4000 ppm (4 kg/ha in a 1000 l/ha field volume) using a tracksprayer and a SS8004E (Teejet) nozzle. […]

Wheat [4] = assay: Whole Plant Screen (2), wheat; format: in vivo, Wheat (Timmo); settings: WW, 4000 ppm
Experimental: (§5) Compound numbers 12-13, 16-17 and 19-20 were tested on an alternative whole plant screen (2). The compounds were tested for plant growth regulator activity against five species for various growth effects relevant to plant growth regulation.
The plant species used in this screen are presented in Table IV with the leaf stage at which they were sprayed. Each chemical was applied at 4000 ppm (4 kg/ha in a 1000 l/ha field volume) using a tracksprayer and a SS8004E (Teejet) nozzle. […]
After 2-6 weeks in the glasshouse, depending on the time of year, the plants were visually assessed for morphological characteristics. Formulation blanks were used as controls to assess the plants. […]

Maize = assay: Whole Plant Screen (2), maize; format: in vivo, Maize (Earliking); settings: MZ, 4000 ppm, 2-6 weeks, Table V
Experimental: as §5
The plant species used in this screen are presented in Table IV with the leaf stage at which they were sprayed. Each chemical was applied at 4000 ppm (4 kg/ha in a 1000 l/ha field volume) using a tracksprayer and a SS8004E (Teejet) nozzle.
(§6) After spray the plants were grown in a glasshouse with 25° C. day 22° C. night temperatures and supplementary lighting was supplied when necessary (from mercury vapour lamps), to provide a 16 hour photoperiod. The exception to this were the temperate cereals, wheat and barley which were grown in 16° C. day 13° C. night temperatures.
as §2, §3
The plant species used in this screen are presented in Table XII with the leaf stage at which they were sprayed Each chemical was applied at 4000 ppm (4 kg/ha in a 1000 l/ha field volume) using a tracksprayer and a SS8004E (Teejet) nozzle.
as §6, with “day/22°” for “day 22°”, “day/13°” for “day 13°”

Barley [5] = assay: Whole Plant Screen (2), barley; format: in vivo, Barley (Atem); settings: BR, 4000 ppm, 2-6 weeks, Table V
Experimental: as §3, §4

Apples = assay: Intermediate Retardant Test, apples; format: in vivo, Apples (Red Delicious); settings: 672 h, ~28 days, read-out: Percentage Reduction in Height of Apples (Compared to formulation blank)
Experimental: as §1
as §1, with “in Table XIV. Compounds were” for “in Table VI. Compounds were”, “that test, and presented as” for “that test, presented as”

Tomato = settings: TO, 4000 ppm, 2-3 weeks
Cynosurus cristatus = settings: CC, 4000 ppm, 2-3 weeks
Experimental: (§7) The compounds were tested for plant growth regulator activity against up to tweleve plant species for various growth effects relevant to plant growth regulation.
(§8) After spray, the plants were grown in a glasshouse with 25° C. day/22° C. night temperatures and supplementary lighting was supplied when necessary (from mercury vapour lamps), to provide a 16 hour photoperiod. The exception to this were the temperate cereals, wheat and barley, which were grown in 16° C. day 13° C. night temperatures
(§9) After 2-3 weeks in the glasshouse, depending on the time of year, the plants were visually assessed for morphological characteristics. Formulations blanks were used as controls to assess the Plants.

Barley [6] = settings: BR, 4000 ppm, 2-3 weeks
Experimental: as §7, §8, §9

Wheat [7] = settings: WW, 4000 ppm, 2-3 weeks
Experimental: as §7, §8, §9

Soya = settings: SY, 4000 ppm, 2-3 weeks
Agrostis tenius = settings: AT, 4000 ppm, 2-3 weeks
Experimental: as §7, §8, §9

Dacrylis glomerata = settings: DA, 4000 ppm, 2-3 weeks
Lettuce = settings: LT, 4000 ppm, 2-3 weeks
Experimental: as §7, §8, §9

Vines = settings: VN, 4000 ppm, 2-3 weeks

SMILES | height reduction vs blank at 1000 ppm (Spring Barley; Table VIII) | height reduction vs blank at 4000 ppm (Spring Barley; Table VIII) | Percent reduction in rice plant height vs formulation blank at 1000 ppm (Rice [1]; Table VII) | Percent reduction in rice plant height vs formulation blank at 4000 ppm (Rice [1]; Table VII) | Total Retardation expressed as a percentage of the total retardation caused by paclobutrazol [2] | percent reduction in plant height vs formulation blank at 1000 ppm (Apples; Table IX) | percent reduction in plant height vs formulation blank at 4000 ppm (Apples; Table IX) | Retardation score (1-3) with greening (G), apical damage (A), tillering/side shooting (T) (Cynosurus cristatus) | Retardation score (1-3) with greening (G), apical damage (A), tillering/side shooting (T) (Wheat [7]) | Retardation score (1-3) with greening (G), apical damage (A), tillering/side shooting (T) (Soya) | Retardation score (1-3) with greening (G), apical damage (A), tillering/side shooting (T) (Agrostis tenius) | other results
CC(C)(C)C(O)(C#CCCCCl)Cn1cncn1 (stereo not drawn) [Compound 13] | 17% | 41% | 6% | 5.2% | 83.3 % of paclobutrazol | 2.8% | 9.2% | – | – | – | – | I = Interligular or internodal length reduction (Rice [3]; 2-6 weeks, Table V): 2 (31-60%); R = Retardation (Rice [3]; 2-6 weeks, Table V): 2 (31-60%); T = Tillering or side shooting (Rice [3]; 2-6 weeks, Table V): 1 (10-30%); G = Greening effect (Wheat [4]; 2-6 weeks, Table V): 1 (10-30%); T = Tillering or side shooting (Wheat [4]; 2-6 weeks, Table V): 1 (10-30%); I = Interligular or internodal length reduction (Maize): 1 (10-30%); R = Retardation (Maize): 1 (10-30%); I = Interligular or internodal length reduction (Barley [5]): 2 (31-60%)
CCC(C)CC#CC(O)(Cn1cncn1)C(C)(C)C (stereo not drawn) [Compound 10, 2,2-dimethyl-3-hydroxy-3-(4-methyl-hex-1-yne-1-yl)-4-(1,2,4-triazol-1-yl)-butane] | 20.2% | 72.4% | 20.7% | 38.2% | 47.8 % of paclobutrazol | 9.8% | 27.1% | 2 (21-60% retardation) | 2GT | 2GA | 1 (10-30% retardation) | Retardation score (1-3) with greening (G), apical damage (A), tillering/side shooting (T) (Tomato): 1G; Retardation score (1-3) with greening (G), apical damage (A), tillering/side shooting (T) (Barley [6]): 2GT; Retardation score (1-3) with greening (G), apical damage (A), tillering/side shooting (T) (Dacrylis glomerata): 1 (10-30% retardation)
CC(C)(C)C#CC(O)(Cn1cncn1)C(C)(C)C (stereo not drawn) [Compound 5, 2,2-dimethyl-3-hydroxy-3-(3,3-dimethyl-but-1-yne-1-yl)-4-(1,2,4-triazol-1-yl)-butane] | 7% | 22.6% | 11.4% | 21.2% | 28.1 % of paclobutrazol | – | 31.5% | 2 (21-60% retardation) | 2 (21-60% retardation) | 2G | 1 (10-30% retardation) | Retardation score (1-3) with greening (G), apical damage (A), tillering/side shooting (T) (Lettuce): 1 (10-30% retardation); height reduction vs blank at 1000 ppm (Spring Barley; side-by-side, Table XV): 9%; height reduction vs blank at 4000 ppm (Spring Barley; side-by-side, Table XV): 11%; Percent reduction in rice plant height vs formulation blank at 1000 ppm (Rice [1]; side-by-side, Table XVI): 10%; Percent reduction in rice plant height vs formulation blank at 4000 ppm (Rice [1]; side-by-side, Table XVI): 10%; range of activity / superiority in comparison with EP 0052424 compounds ([2]; Tables X and XI, across screen comparison): lower range of activity than the rest of the preferred class; Retardation score (1-3) with greening (G), apical damage (A), tillering/side shooting (T) (Vines): 1GT; T = Tillering or side shooting (Rice [3]; side-by-side, Table XIII): 2 (31-60%); G = Greening effect (Wheat [4]; side-by-side, Table XIII): 2 (31-60%); T = Tillering or side shooting (Wheat [4]; side-by-side, Table XIII): 2 (31-60%); percent reduction in plant height vs formulation blank at 1000 ppm (Apples; side-by-side, Table XVII): 2%; percent reduction in plant height vs formulation blank at 4000 ppm (Apples; side-by-side, Table XVII): 24%
